Read-outs that look alike come from different tables or passages of the source.
Experiments:
Assay in all cases: Cytotoxicity, Neutral Red survival assay
Type in all cases: cell-based, human
[1] = system: PEO1 cells; conditions: Homo sapiens
Protocol: (§1) SKOV3 and PEO1 cells were seeded in a clear 96-well plate at a density of 1 × 10^4 cells/well in 100-µL culture medium. MRC-5 cells were seeded at a density of 7.5 × 10^3/well and allowed to attach for 24 h at 37 °C. After incubation, the cells were treated with delphinidin chloride in a concentration range of 10–100 µM and 3-BP at concentrations between 5–25 µM for PEO1 and 10–50 µM for MRC-5 and SKOV3. Nontreated cells were used as a control. Stock solutions of tested substances were prepared in DMSO and their working solutions in culture media. The DMSO concentration was adjusted to 0.2% in all samples, which had no significant effect on the treated cells. After 24-h exposure time, the medium was removed and replaced with 100 µL of […] neutral red solution, and the cells were incubated at 37 °C for 1 h. Then, the cells were washed with PBS; fixed with 100 µL/well of 50% ethanol, 49% H2O and 1% glacial acetic acid and shaken (700 rpm) at room temperature for 20 min. Absorbance was measured at 540 nm against 620 nm.

[2] = system: SKOV3 cells; conditions: Homo sapiens
Protocol: as §1

[3] = system: MRC-5 fibroblasts; conditions: Homo sapiens, MRC5, read-out: IC50 of cell survival (extrapolated)
Protocol: as §1

[4] = PEO1, 24 h, PEO1, 24-h exposure, Neutral Red, ND = no reduction of survival in the concentration range studied, read-out: IC50 of cell survival
[5] = PEO1, PEO1, extrapolated from data obtained in the concentration range of 1–100 µM, read-out: IC50 of cell survival (extrapolated)
[6] = SK-OV-3, SKOV3, extrapolated from data obtained in the concentration range of 1–100 µM, read-out: IC50 of cell survival (extrapolated)

SMILES	IC50 [1, 4]	IC50 [1, 5]	IC50 [2, 6]	other results
Oc1cc(O)c2cc(O)c(-c3ccc(O)c(O)c3)[o+]c2c1 [Cyanidin chloride]	107 µM			
O=c1c(-c2ccc(O)cc2)coc2cc(O)ccc12 [Daidzein]		> 100 µM	> 100 µM	
O=c1c(-c2ccc(O)cc2)coc2cc(O)cc(O)c12 [Genistein]		> 100 µM	> 100 µM	
COc1c(O)cc2oc(-c3ccc(O)cc3)cc(=O)c2c1O [Hispidulin]				IC50 ([1]; PEO1, 24 h, read-out: IC50 of cell survival): 181 µM; IC50 ([2]; SK-OV-3, read-out: IC50 of cell survival (extrapolated)): > 100 µM
COc1cc(-c2[o+]c3cc(O)cc(O)c3cc2O)cc(OC)c1O [Malvidin chloride]				IC50 [3]: > 100 µM; IC50 ([1]; PEO1, read-out: IC50 of cell survival (extrapolated)): > 100 µM; IC50 ([2]; SK-OV-3, 24 h, read-out: IC50 of cell survival): 90 µM
O=c1c(O)c(-c2cc(O)c(O)c(O)c2)oc2cc(O)cc(O)c12 [Myricetin]	196 µM			
